Read-outs that look alike come from different tables or passages of the source.
Molecular target: T1, HDAC8 (Homo sapiens, UniProt Q9BY41)
T1 construct: purchased Enzo Life Sciences (Farmingdale, N.Y.) BMIL-SE145-0100
T1 sequence (Q9BY41 1-377): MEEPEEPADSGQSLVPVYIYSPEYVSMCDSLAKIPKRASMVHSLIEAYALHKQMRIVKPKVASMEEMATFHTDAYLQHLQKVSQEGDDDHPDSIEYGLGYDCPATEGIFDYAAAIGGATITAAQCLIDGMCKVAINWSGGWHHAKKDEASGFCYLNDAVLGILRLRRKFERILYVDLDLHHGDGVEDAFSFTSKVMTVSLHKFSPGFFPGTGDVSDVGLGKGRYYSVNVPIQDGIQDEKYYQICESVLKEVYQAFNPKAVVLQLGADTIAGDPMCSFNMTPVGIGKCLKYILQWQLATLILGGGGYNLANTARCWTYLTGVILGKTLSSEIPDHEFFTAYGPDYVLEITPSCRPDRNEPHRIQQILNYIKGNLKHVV
Assay: HDAC8 inhibition, modified Fluor-de-Lys assay
Type: biochemical
Conditions: 3 h pre-incubation, 200 μM substrate BML-KI178, read-out: HDAC-8 IC50
Text: Human HDAC Enzyme Inhibitor FLUOR-DE-LYS Assay Materials
Recombinant human HDAC8 (catalog number BMIL-SE145-0100) and HDAC10 (catalog number BML-SE559-0050) enzymes, HIDAC substrates BML-KI104 and BML-K1178, and HLDAC developer solutions BMIL-KI105 and BML-K1176 were purchased from Enzo Life Sciences (Farmingdale, N.Y.). Recombinant human HDAC5 and HDAC11 were purchased from BPS Bioscience (San Diego, Calif.)(catalog numbers 50045 and 50021). Substrate Boc-Lys(TFA)-AMC was obtained from Bachem (Bupendorf, Switzerland) (catalog number 1-1985). HDAC inhibitor suberoylanilide hydroxamic acid (SAHA) was obtained from Indofine (Hillsborough Township, N.J.) and trichostatin A (TSA) was obtained from Sigma-Aldrich (St. Louis, Mo.). […] HEPES pH 8.0 was obtained from Boston BioProducts (Ashland, Mass.), Tween-20 from Fisher Scientific (Hampton, N.H.) (catalog number BP337), TCEP from Calbiochem and 7.5% bovine serum albumin (BSA) from Life Technologies (Carlsbad, Calif.) (catalog number 15260037). 384-well, black assay plates were obtained from Corning (Corning, N.Y.) (catalog number 3575).
The histone deacetylase activities of HDAC1, HDAC2, HDAC3, HDAC6, and HDAC8 were measured in modified Fluor-de-Lys assays in 384-well format. In this assay, HDAC enzymes are initially incubated with an ε-acetyl (or -trifluoroacetyl)-L-lysine-containing substrate with a C-terminal amide having aminomethylcoumarin as the amine component. HDACs cleave the ε-acetyl group, rendering the resulting product susceptible to AMC cleavage by trypsin. The released AMC is then detected by its fluorescence.
The HDAC 1, 2 assays employed buffer A, which contained 20 mM HEPES, pH 8.0, 1 mM MgCl2, 137 mM NaCl, 2.7 mM KCl, 0.05% BSA. The HDAC3/SMRT assay employed buffer B, consisting of 20 mM HEPES, pH 8.0, 1 mM MgCl2, 50 mM NaCl, 2.7 mM KCl, 0.05% BSA, 0.005% Tween 20, and 10 μM IP4. The HDAC6 assay employed buffer C, consisting of 20 mM HEPES, pH 8.0, 1 mM MgCl2, 137 mM NaCl, 2.7 mM KCl, 0.5 mM TCEP (Calbiochem) and 0.05% BSA. The HDAC8 assay employed buffer D, consisting of 20 mM HEPES, pH 8.0, 1 mM MgCl2, 100 mM NaCl, 20 mM KCl, 0.1% n-octyl-β-D-glucoside (Anatrace, Maumee, Ohio) and 0.05% BSA. All steps were performed at room temperature (23° C.). The assay was performed by pre-incubating serial dilutions of test compounds with the target HDAC prior to initiation with substrate. Each compound was titrated in a 10-point dose response, using a 1:3 fold dilution scheme, with 0.15 ul of solution added by ECHO555 to the plate, followed by the addition of 20 μl of the appropriate HDAC isoform diluted in appropriate assay buffer. […] Final conditions used for each assay were: 1. HDAC 1, 0.3 nM total enzyme, 20 μM substrate BML-KI104; 2. HDAC 2, 1.5 nM total enzyme, 40 μM substrate BML-KI104; 3. HDAC 3/SMRT, 0.3 nM total enzyme, 20 μM substrate BML-KI104; 4. HDAC 6, 1.3 nM total enzyme, 2.5 μM substrate BML-KI104; 5. HDAC 8, 1.3 nM total enzyme, 200 μM substrate BML-KI178; the final high dose of test compound was 30 μM. For potent compounds, 900 nM was used as the final high dose. The reactions were stopped and developed by addition of 30 ul of HDAC developer solution containing a saturating level of HDAC inhibitor as follows: 1.

Row | Compound | IC50 (1.3 nM enzyme) | IC50 ([…] enzyme)
1 | CCC(=O)CCCCC[C@H](NC(=O)[C@H]1CC12CCN(CC)CC2)c1[nH]c2nc1C(=O)NCCC/C=C\c1cccc-2c1 [Compound 14, (1S)-6-ethyl-N-{(1S)-7-oxo-1-[(11Z)-6-oxo-3,7,18-triazatricyclo[11.3.1.1~2,5~]octadeca-1(17),2(18),4,11,13,15-hexaen-4-yl]nonyl}-6-azaspiro[2.5]octane-1-carboxamide] | > 900 nM | 
2 | CCC(=O)CCCCC[C@H](NC(=O)[C@H]1CC12CCN(CC)CC2)c1[nH]c2nc1C(=O)NCCC/C=C/c1cccc-2c1 [Compound 15, (1S)-6-ethyl-N-{(1S)-7-oxo-1-[(11E)-6-oxo-3,7,18-triazatricyclo[11.3.1.1~2,5~]octadeca-1(17),2(18),4,11,13,15-hexaen-4-yl]nonyl}-6-azaspiro[2.5]octane-1-carboxamide] | > 900 nM | 
3 | CCC(=O)CCCCCC1NC(=O)C2CC2N2CCC(CCCCCn3c(=O)ccc4cc(ccc43)-c3cnc1o3)CC2 [Compound 7, (11S,4S)-4-(6-oxooctyl)-61,62-dihydro-3-aza-5(2,5)-oxazola-6(6,1)-quinolina-12(4,1)-piperidina-1(1,2)-cyclopropanadodecaphane-62,2-dione] |  | > 900 nM
4 | (11S,4S)-4-(6-oxooctyl)-61,62-dihydro-3-aza-5(2,5)-oxazola-6(6,1)-quinolina-12(4,1)-piperidina-1(1,2)-cyclopropanadodecaphane-62,2-dione [Compound 8] |  | > 900 nM
5 | CCC(=O)CCCCC[C@@H]1NC(=O)[C@H]2CC23CCN(CCCOCCCn2ccc4cc(ccc4c2=O)-c2cnc1[nH]2)CC3 [Compound 12, (3S,6S)-6-(6-oxooctyl)-22-oxa-5,8,18,26,33-pentaazahexacyclo[24.2.2.1˜7,10˜0.1˜11,15˜0.1˜14,18˜0.0˜1,3˜]tritriaconta-7,9,11(32),12,14,16-hexaene-4,31-dione] |  | 808 nM

Source: patent US11976069B2, “Inhibitors of histone deacetylase useful for the treatment or prevention of HIV infection” (Merck Sharp & Dohme LLC, priority 2019, dated 2024)
